# According to the supplement of paper PMC10307832:
# Assays:
# Test in all cases: relative viability (nuclei count vs DMSO), 5 days (fraction); higher = more cells survive
# KIN001-266 + Linsitinib = compound: CCN1CCC(CC1)N2C=C(N=N2)CNC3=CC4=C(C(=CN=C4C(=C3)Cl)C#N)NC5=CC(=C(C=C5)F)Cl [KIN001-266] + C[C@]1(O)C[C@@H](c2nc(-c3ccc4ccc(-c5ccccc5)nc4c3)c3c(N)nccn32)C1 [Linsitinib] (partner 1 µM)
# Method in brief: (§1)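 A single step with final 0.05% Triton X-100, 1% formaldehyde and 1 ug/ml Hoechst fixed the cells and stained nuclei 5 days after treatment. Lung cancer cell lines in 1536-well plates had been treated by pin tool the day after seeding with one drug alone or a fixed anchor-drug dose plus five library-drug doses (not always all listed) in √10 steps, and nuclei were counted on 4× images. Relative viability is the ratio of nuclei in treated wells to nuclei in vehicle wells, taken as the median of duplicate plates.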
# KIN001-266 + Pictilisib = compound: CCN1CCC(CC1)N2C=C(N=N2)CNC3=CC4=C(C(=CN=C4C(=C3)Cl)C#N)NC5=CC(=C(C=C5)F)Cl [KIN001-266] + CS(=O)(=O)N1CCN(Cc2cc3nc(-c4cccc5[nH]ncc45)nc(N4CCOCC4)c3s2)CC1 [Pictilisib] (partner 1 µM)
# Method in brief: as §1
# KIN001-266 + Alpelisib = compound: CCN1CCC(CC1)N2C=C(N=N2)CNC3=CC4=C(C(=CN=C4C(=C3)Cl)C#N)NC5=CC(=C(C=C5)F)Cl [KIN001-266] + Cc1nc(NC(=O)N2CCC[C@H]2C(N)=O)sc1-c1ccnc(C(C)(C)C(F)(F)F)c1 [Alpelisib] (partner 2 µM)
# Method in brief: as §1
# KIN001-266 + Decitabine = compound: CCN1CCC(CC1)N2C=C(N=N2)CNC3=CC4=C(C(=CN=C4C(=C3)Cl)C#N)NC5=CC(=C(C=C5)F)Cl [KIN001-266] + Nc1ncn([C@H]2C[C@H](O)[C@@H](CO)O2)c(=O)n1 [Decitabine] (partner 2 µM)
# Method in brief: as §1
Cell Line,relative viability (KIN001-266 + Linsitinib; first compound 0.08 µM),relative viability (KIN001-266 + Linsitinib; first compound 0.253 µM),relative viability (KIN001-266 + Linsitinib; first compound 2.53 µM),relative viability (KIN001-266 + Linsitinib; first compound 8 µM),relative viability (KIN001-266 + Pictilisib; first compound 0.08 µM),relative viability (KIN001-266 + Pictilisib; first compound 0.253 µM),relative viability (KIN001-266 + Pictilisib; first compound 2.53 µM),relative viability (KIN001-266 + Pictilisib; first compound 8 µM),relative viability (KIN001-266 + Alpelisib; first compound 0.08 µM),relative viability (KIN001-266 + Alpelisib; first compound 0.253 µM),relative viability (KIN001-266 + Alpelisib; first compound 2.53 µM),relative viability (KIN001-266 + Alpelisib; first compound 8 µM),relative viability (KIN001-266 + Decitabine; first compound 0.08 µM),relative viability (KIN001-266 + Decitabine; first compound 0.253 µM),relative viability (KIN001-266 + Decitabine; first compound 0.8 µM),relative viability (KIN001-266 + Decitabine; first compound 2.53 µM),relative viability (KIN001-266 + Decitabine; first compound 8 µM),relative viability (KIN001-266 + Linsitinib; first compound 0.8 µM),relative viability (KIN001-266 + Pictilisib; first compound 0.8 µM),relative viability (KIN001-266 + Alpelisib; first compound 0.8 µM)
HCC-827,0.952,1.03,0.945,0.841,0.855,1.09,0.785,0.837,0.953,1.04,0.948,0.648,0.327,0.382,0.153,0.28,0.268,–,–,–
HCC-78,0.465,0.516,0.459,0.642,0.234,0.193,0.253,0.259,0.302,0.346,0.46,0.411,0.813,0.684,0.675,0.759,0.715,0.451,0.174,0.377
NCI-H2085,0.854,0.986,0.949,0.793,0.524,0.452,0.462,0.458,0.941,0.983,1,0.795,0.567,0.57,0.517,0.474,0.499,0.908,0.421,0.959
PC-14,0.953,1.06,0.97,0.442,0.702,0.571,0.565,0.0965,0.927,0.923,0.906,0.663,0.214,0.253,0.2,0.265,0.229,1.01,0.772,0.918
NCI-H2342,–,–,–,–,–,–,–,–,–,–,–,–,0.693,0.762,0.662,0.872,0.817,–,–,–
A-427,1.12,1.2,1.06,1.13,0.778,0.735,0.72,0.754,1.12,1.05,1.02,0.998,0.616,0.566,0.521,0.508,0.535,1.09,0.582,1.04
H3255,0.841,1.03,0.841,0.713,0.523,0.518,0.516,0.341,0.685,0.737,0.785,0.475,0.632,0.557,0.587,0.618,0.713,0.884,0.49,0.756
HCC-44,0.669,0.678,0.742,0.622,0.657,1.76,0.636,0.57,0.806,0.838,0.868,0.651,0.977,0.964,1.01,0.847,0.99,0.687,0.593,0.805
NCI-H1734,0.812,0.876,0.848,0.856,0.521,0.452,0.418,0.43,0.686,0.686,0.716,0.704,0.513,0.512,0.421,0.48,0.433,0.735,0.454,0.546
NCI-H2228,0.94,0.813,0.518,0.454,0.343,0.312,0.276,0.432,0.757,0.95,0.549,0.622,–,–,–,–,–,0.483,0.425,0.771
ABC-1,1.1,0.788,0.76,0.713,0.864,0.927,0.65,0.547,1.23,1.08,0.812,0.976,1.19,1.18,1.07,1.09,0.855,0.945,0.926,1.09
COR-L23,0.958,0.918,0.88,0.601,0.88,0.749,0.649,0.478,0.735,0.804,0.736,0.404,0.487,0.497,0.466,0.464,0.389,0.928,0.697,0.814
ChaGo-K-1,–,–,–,–,1.04,0.852,0.844,0.703,–,–,–,–,0.502,0.517,0.508,0.506,0.38,–,–,–
NCI-H1650,–,–,–,–,0.618,0.621,0.524,0.479,–,–,–,–,0.396,0.43,0.426,0.544,0.388,–,0.554,–
EBC-1,1.04,0.896,1.01,0.726,0.416,0.519,0.576,0.329,0.929,0.879,0.843,0.629,–,–,–,–,–,0.839,0.553,0.822
SW 900,–,–,–,–,–,–,–,–,–,–,–,–,0.733,0.448,0.463,0.427,0.343,–,–,–
NCI-H1703,0.786,0.493,0.488,0.747,0.287,0.23,0.211,0.223,0.419,0.307,0.289,0.325,–,–,–,–,–,1.11,0.234,0.31
CAL-12T,0.802,0.811,0.863,0.493,0.698,0.539,0.31,0.47,1.43,1.39,1.3,1.02,–,–,–,–,–,0.774,–,1.11
NCI-H1563,1.16,1.22,1.16,1.1,0.662,0.636,0.656,0.677,0.996,0.904,0.906,0.897,–,–,–,–,–,1.25,0.636,0.92
NCI-H2170,–,–,–,–,0.372,0.392,0.296,0.3,0.81,0.771,0.734,0.786,0.47,0.437,0.457,0.436,0.414,–,0.344,0.776
